Test results as given in ChEMBL document CHEMBL1201862, “PubChem BioAssay data set” (2004).
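Growth conditions: 96-well plates. Treatment: test compound, 48 hours, 5 concentrations. Analysis: linear interpolation between bracketing concentrations; unreached endpoints set to highest concentration. GI50 is the concentration that inhibits growth by half.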 Activity calls are given as the source filed them. Cut-off read from the data, not from the text of the source: active = GI50 up to about 1.1 µM and inactive = higher.

Columns and labels:
Assay in all cases: growth of human tumour cells (NCI), 48 h
IGROV-1 = tested on: IGROV-1
MOLT-4 = tested on: MOLT-4
MDA-MB-435 = tested on: MDA-MB-435
Malme-3M = tested on: Malme-3M
TK-10 = tested on: TK-10
SNB-19 = tested on: SNB-19
Hs-578T = tested on: Hs-578T
KM12 = tested on: KM12
OVCAR-8 = tested on: OVCAR-8
HT-29 = tested on: HT-29
NCI-H23 = tested on: NCI-H23
LOX IMVI = tested on: LOX IMVI
HL-60 = tested on: HL-60
A549 = tested on: A549
SK-OV-3 = tested on: SK-OV-3
SK-MEL-2 = tested on: SK-MEL-2
RPMI-8226 = tested on: RPMI-8226
NCI/ADR-RES = tested on: NCI/ADR-RES
NCI-H522 = tested on: NCI-H522
HOP-92 = tested on: HOP-92

Measured: GI50

O=C1c2c(ccc3c2CCC3)CC1Cc1ccc2c(c1)CCC2 (centres undefined)
inactive: IGROV-1 28.6 µM | MOLT-4 13.1 µM | MDA-MB-435 24 µM | Malme-3M 28.8 µM | TK-10 29.2 µM | SNB-19 48.5 µM | Hs-578T 10 µM | KM12 25.2 µM | OVCAR-8 36.3 µM | HT-29 17.6 µM | NCI-H23 21.6 µM | LOX IMVI 25.4 µM | HL-60 4.69 µM | A549 28.9 µM | SK-OV-3 53.3 µM | SK-MEL-2 27.2 µM | RPMI-8226 9.91 µM | NCI/ADR-RES 28.2 µM

CC(C)(C)OC(=O)N1N=CCC1c1ccccc1 (centres undefined)
inactive: IGROV-1 > 100 µM | NCI-H522 > 100 µM | MDA-MB-435 > 100 µM | TK-10 > 100 µM | Hs-578T > 100 µM | KM12 > 100 µM | OVCAR-8 > 100 µM | HOP-92 > 100 µM | HT-29 > 100 µM | NCI-H23 > 100 µM | LOX IMVI > 100 µM | HL-60 > 100 µM | A549 > 100 µM | SK-OV-3 > 100 µM | RPMI-8226 > 100 µM | NCI/ADR-RES > 100 µM

CC(=O)N1C(c2[nH]c3ccccc3c2Cc2ccccc2)CCN1c1ccccc1 (centres undefined)
inactive: IGROV-1 > 10 µM | NCI-H522 8.47 µM | MOLT-4 4.4 µM | MDA-MB-435 9.06 µM | Malme-3M > 10 µM | TK-10 > 10 µM | SNB-19 > 10 µM | Hs-578T 9.31 µM | OVCAR-8 > 10 µM | HT-29 > 10 µM | NCI-H23 8.59 µM | LOX IMVI > 10 µM | HL-60 5.42 µM | A549 4.88 µM | SK-OV-3 > 10 µM | SK-MEL-2 > 10 µM | RPMI-8226 6.49 µM | NCI/ADR-RES 9.02 µM

CC(=O)C1=C(C)N2C(=NC3=C(CCc4ccccc43)C2c2cccc(Br)c2)S1 (centres undefined)
inactive: IGROV-1 48.2 µM | MDA-MB-435 > 100 µM | SNB-19 > 100 µM | Hs-578T 67.1 µM | KM12 49.7 µM | OVCAR-8 > 100 µM | HOP-92 > 100 µM | HT-29 22.1 µM | NCI-H23 99.1 µM | LOX IMVI 76.4 µM | HL-60 25.8 µM | A549 > 100 µM | SK-OV-3 > 100 µM | SK-MEL-2 > 100 µM | RPMI-8226 16.8 µM | NCI/ADR-RES > 100 µM

Nc1ncnc2c1nc(Cl)n2C1OC2COP(=O)(O)OC2C1O (centres undefined)
inactive: IGROV-1 11 µM | NCI-H522 3.63 µM | MOLT-4 2.81 µM | MDA-MB-435 7.82 µM | Malme-3M 37 µM | TK-10 6.49 µM | SNB-19 > 100 µM | Hs-578T 19.6 µM | KM12 41.6 µM | OVCAR-8 3.9 µM | HT-29 4.57 µM | NCI-H23 7.24 µM | LOX IMVI 1.19 µM | HL-60 1.23 µM | A549 23.3 µM | SK-OV-3 3.01 µM | SK-MEL-2 > 100 µM | RPMI-8226 5.53 µM | NCI/ADR-RES 8.39 µM

O=c1oc2ccccc2c2c(=O)c3ccc(OC/C(=N/O)c4ccc(Cl)cc4)cc3oc12
inactive: IGROV-1 31.5 µM | MOLT-4 5.06 µM | MDA-MB-435 2.47 µM | SNB-19 14.9 µM | Hs-578T 8.3 µM | KM12 3.11 µM | OVCAR-8 24 µM | HOP-92 11 µM | NCI-H23 18.4 µM | LOX IMVI 11.8 µM | HL-60 9.25 µM | A549 13.2 µM | SK-OV-3 11.7 µM | SK-MEL-2 4.85 µM | RPMI-8226 11.7 µM | NCI/ADR-RES 7.35 µM

Cn1cnc(N)c(N=O)c1=O
inactive: IGROV-1 > 10 µM | NCI-H522 > 10 µM | MOLT-4 > 10 µM | MDA-MB-435 > 10 µM | Malme-3M > 10 µM | TK-10 > 10 µM | SNB-19 > 10 µM | Hs-578T > 10 µM | KM12 > 10 µM | OVCAR-8 > 10 µM | HT-29 > 10 µM | NCI-H23 > 10 µM | LOX IMVI > 10 µM | HL-60 > 10 µM | A549 > 10 µM | SK-OV-3 > 10 µM | SK-MEL-2 > 10 µM | RPMI-8226 > 10 µM | NCI/ADR-RES > 10 µM

COc1ccc(C(=O)Nc2ccc(O)c(=O)cc2)cc1
inactive: IGROV-1 37.9 µM | NCI-H522 25.8 µM | MDA-MB-435 43.4 µM | Malme-3M 43.9 µM | TK-10 53 µM | SNB-19 36.1 µM | Hs-578T 29.2 µM | KM12 39.4 µM | OVCAR-8 30.6 µM | HT-29 20.8 µM | NCI-H23 89.7 µM | LOX IMVI 38.7 µM | HL-60 21.3 µM | A549 43.9 µM | SK-MEL-2 50.1 µM | RPMI-8226 26.9 µM | NCI/ADR-RES 42.3 µM
